The text below walks through data of PubChem BioAssay AID367 (MTDP, 2006).

The assay deals with Gag-Pol polyprotein (Human immunodeficiency virus type 2 subtype A (isolate ROD)) (UniProt P04584). The assay can be described thus: Ribonuclease H inhibitors of HIV-2 reverse transcriptase, biochemical dose response (AID 367). The conditions noted are these: HIV-2 RNase H, FRET RNA/DNA substrate cleavage.

Structures are written as SMILES. The source made the active and inactive calls. No rule for the calls is given here. Where only a bound is given, the exact number is not on record here.

Sequence of Gag-Pol polyprotein (Human immunodeficiency virus type 2 subtype A (isolate ROD)) (P04584 whole entry, looked up): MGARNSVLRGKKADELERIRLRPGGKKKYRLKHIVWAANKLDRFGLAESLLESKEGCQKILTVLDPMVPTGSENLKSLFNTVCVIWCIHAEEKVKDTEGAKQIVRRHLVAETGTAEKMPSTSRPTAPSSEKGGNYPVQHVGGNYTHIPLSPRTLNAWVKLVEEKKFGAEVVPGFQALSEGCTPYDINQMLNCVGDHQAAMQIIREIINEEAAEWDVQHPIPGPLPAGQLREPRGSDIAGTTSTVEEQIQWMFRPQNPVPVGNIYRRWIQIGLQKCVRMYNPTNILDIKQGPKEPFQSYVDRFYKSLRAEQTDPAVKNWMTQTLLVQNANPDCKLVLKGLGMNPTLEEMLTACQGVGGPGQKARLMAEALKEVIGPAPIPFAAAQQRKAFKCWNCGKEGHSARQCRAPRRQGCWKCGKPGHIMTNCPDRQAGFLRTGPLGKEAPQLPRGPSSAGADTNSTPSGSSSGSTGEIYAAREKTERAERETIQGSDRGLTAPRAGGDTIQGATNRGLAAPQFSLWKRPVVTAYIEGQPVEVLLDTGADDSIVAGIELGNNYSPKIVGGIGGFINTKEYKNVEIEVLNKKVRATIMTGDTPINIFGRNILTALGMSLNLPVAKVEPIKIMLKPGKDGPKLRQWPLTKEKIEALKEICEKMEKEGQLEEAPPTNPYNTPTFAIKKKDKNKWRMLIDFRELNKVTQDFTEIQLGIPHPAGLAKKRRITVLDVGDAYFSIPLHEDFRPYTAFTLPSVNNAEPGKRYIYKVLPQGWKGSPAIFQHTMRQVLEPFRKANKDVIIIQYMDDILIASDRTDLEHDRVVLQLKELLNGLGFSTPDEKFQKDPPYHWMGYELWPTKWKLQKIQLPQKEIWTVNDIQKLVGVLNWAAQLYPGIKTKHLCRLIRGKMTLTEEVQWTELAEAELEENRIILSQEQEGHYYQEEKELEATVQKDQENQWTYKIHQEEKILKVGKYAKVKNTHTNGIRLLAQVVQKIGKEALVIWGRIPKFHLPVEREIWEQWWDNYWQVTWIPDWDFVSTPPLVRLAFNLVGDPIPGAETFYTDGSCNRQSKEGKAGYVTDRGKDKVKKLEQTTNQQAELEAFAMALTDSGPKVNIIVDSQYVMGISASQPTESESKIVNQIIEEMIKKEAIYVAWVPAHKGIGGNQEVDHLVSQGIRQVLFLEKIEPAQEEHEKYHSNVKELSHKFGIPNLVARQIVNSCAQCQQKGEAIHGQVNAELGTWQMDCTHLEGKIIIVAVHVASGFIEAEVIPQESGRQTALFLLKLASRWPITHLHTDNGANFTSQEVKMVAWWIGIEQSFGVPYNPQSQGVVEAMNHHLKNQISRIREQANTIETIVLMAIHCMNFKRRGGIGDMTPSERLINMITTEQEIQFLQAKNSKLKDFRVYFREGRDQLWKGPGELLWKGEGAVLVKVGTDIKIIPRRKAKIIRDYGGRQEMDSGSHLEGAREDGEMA

Usually IC50 stands for the concentration needed to halve the response being measured. `COC(=O)c1cc2cc3cc4cc(CC(=O)O)c(C(=O)/C=C(\O)c5ccccc5O)c(OC)c4c(OC)c3c(O)c2c(=O)o1`: the half-maximal inhibitory concentration (IC50) was 8600 nM.

For the molecule `Cc1ccc(-c2cc(C(=O)Nc3sc(C(=O)OC(C)C)c(C)c3C(N)=O)c3ccccc3n2)s1`, the IC50 was 1100 nM.

As for `O=C1c2cc([N+](=O)[O-])ccc2-c2ccc3c4ccc5c6c(ccc(c7ccc1c2c73)c64)C(=O)c1cc([N+](=O)[O-])ccc1-5`, the IC50 is 4000 nM.

With `CCOC(=O)Oc1c(OC)cc(C(=O)O[C@@H]2C[C@@H]3CN4CCc5c([nH]c6cc(OC)ccc56)[C@H]4C[C@@H]3[C@H](C(=O)OC)[C@H]2OC)cc1OC`, the IC50 was > 100000 nM (inactive).

As to `Oc1cc(CN2COc3ccccc32)c(O)cc1CNC1CCCCC1`, the IC50 was 2900 nM.

On to `CN1CC(O)C2=CC(=O)C(=O)C=C21` (centres undefined), for which the IC50 is 4000 nM.

With `N#Cc1c(N)nc(SCC(=O)c2ccc(O)c(O)c2)c(C#N)c1-c1ccc(O)cc1`, the IC50 is 430 nM.

Take `Cc1ccc(-c2n[nH]c(=S)n2/N=C/c2ccc(O)c(O)c2O)cc1`: the IC50 was 3800 nM.

For the molecule `CC1=c2c(oc3cc(O)c(Nc4c(C)cc(O)cc4O)c(C)c23)=CC(=O)C1=Nc1c(C)cc(O)cc1O`, the IC50 was 2000 nM.

Take `O=C1c2ccc(O)cc2C(=O)c2c1ccc(O)c2O`: the IC50 is 2000 nM.

On to `O=C1NC(=S)N(c2ccc(Cl)cc2)C(=O)/C1=C\C=C\c1ccccc1[N+](=O)[O-]`, for which the IC50 is 8000 nM.

Turning to `Cc1cc(O)c2c(c1O)C(=O)C13C(=C2O)C(=O)C2C(O)C1C1C(O)C3C(=O)C3=C(O)c4c(O)cc(C)c(O)c4C(=O)C321` (centres undefined), the IC50 was 8200 nM.

Take `Cc1cc(-c2ccco2)c(C#N)c(SCC(=O)c2ccc(O)c(O)c2)n1`: the IC50 is 800 nM.

Consider `O=C1c2ccccc2C(=O)c2c(O)c(O)cc(O)c21`, for which the IC50 is 5000 nM.

On to `O=C(NC(=S)Nc1cc(-c2nc3ccccc3s2)ccc1Cl)c1ccc(F)cc1`, for which the IC50 was 9100 nM.

On to `O=[N+]([O-])c1cc(Cc2cc([N+](=O)[O-])c3cccnc3c2O)c(O)c2ncccc12`, for which the half-maximal inhibitory concentration (IC50) is 2800 nM.

`O=C1/C(=C/c2ccc(O)c(O)c2)SC(=S)N1c1ccc(O)cc1`: the IC50 is 2600 nM.

As for `O=C1C=C(NCCc2cc(Br)c(O)c(Br)c2)C(=O)c2ncccc21`, the IC50 was 1700 nM.

In the case of `O=C1C=CC(=O)C(c2cccc(Cl)c2)=C1`, the IC50 was 1100 nM.

Take `Cc1ccc(C)n1-c1ccc(SCC(=O)O)cc1`: the IC50 is 2000 nM.

With `C=C(C)[C@@H]1CCc2c(O)c(O)c(=O)cc(C)c2C1`, the IC50 was 1700 nM.

For `COc1ccc2c(c1)N(C(=O)CN1C(=O)c3ccccc3C1=O)C(C)(C)c1ssc(=S)c1-2`, the IC50 is 3700 nM.

Consider `O=C1C=CC(=O)C(c2cc(Cl)ccc2Cl)=C1`, for which the IC50 is 100 nM.

Turning to `O=C(Oc1ccccc1)Oc1c(Cl)cc2oc(=O)sc2c1Cl`, the IC50 is 6300 nM.

For `Cc1sc(NC(=O)Cc2ccccc2)c(C(N)=O)c1C`, the IC50 is 9000 nM.

Turning to `COc1cccc(-c2nc3cc(NC(=O)/C=C\c4ccccc4)ccc3o2)c1`, the IC50 is 9200 nM.

As for `O=C1c2ccccc2C(=O)c2c(NC3CCCCC3)ccc(Nc3ccc(S(=O)(=O)O)cc3)c21`, the IC50 is 4800 nM.

`O=C1C(Cl)=C(NC(=O)c2ccccc2)C(=O)C(Cl)=C1NC(=O)c1ccccc1`: the IC50 was 1100 nM.

On to `Oc1c(Br)cc(/C=N/Nc2nnc3c(n2)[nH]c2ccccc23)c(Br)c1O`, for which the IC50 is 2300 nM.

With `Cc1sc(NC(=O)c2cccc([N+](=O)[O-])c2)c(C(N)=O)c1C`, the IC50 was 1800 nM.

As for `Cc1ccc(S(=O)(=O)N=C2C=C(Cl)C(=O)C(Br)=C2)cc1`, the IC50 was 1800 nM.

Regarding `CC(C)c1cccc(O)c(=O)c1`, the IC50 is > 100000 nM (inactive).

Take `Oc1cc(O)c2c(c1)OC(c1ccc(O)c(O)c1)C(OC1(c3cc(O)c(O)c(O)c3)Oc3cc(O)cc(O)c3C(O)C1O)C2` (centres undefined): the IC50 is 1600 nM.

For `S=C(Nc1ccc2c(c1)Cc1ccccc1-2)Nc1ccc2c(c1)Cc1ccccc1-2`, the IC50 result was “inactive”.

Take `O=C1C=CC(=O)c2c(O)cccc21`: the IC50 is 3100 nM.

Regarding `COC(=O)c1cc2c3c(ccc2[nH]1)N(C(=O)c1cc2c4c(ccc2[nH]1)N(C(=O)c1cc2c5c(ccc2[nH]1)N(C(N)=O)CC5)CC4)CC3`, the IC50 was 8100 nM.

`CC1=NN(c2ccc(S(N)(=O)=O)cc2)C(=O)/C1=C/c1ccc(-c2ccc(Cl)cc2Cl)o1`: the concentration for half-maximal inhibition (IC50) was 3600 nM.

Regarding `CC(C)=CCc1ccc(O)c(=O)cc1C(C)C`, the IC50 is > 100000 nM (inactive).

Take `Nc1cc(S(N)(=O)=O)ccc1SSc1ccc(S(N)(=O)=O)cc1N`: the IC50 was 2500 nM.

For the molecule `Cc1ccc(C(=O)Nc2sc(C)c(C)c2C(N)=O)cc1`, the IC50 is 800 nM.

Regarding `Cc1onc(-c2ccccc2)c1C(=O)Nc1sc(C)c(C)c1C(N)=O`, the IC50 result was “inactive”.

As for `Ic1ccc2c(c1)N(c1ccccc1)c1cc(N=c3ccc4nc5ccc(I)cc5n(-c5ccccc5)c-4c3)ccc1N2`, the IC50 is 2000 nM.

`O=C1C(Cl)=C(Nc2ccc(S(=O)(=O)Nc3ccccn3)cc2)C(=O)c2ccccc21`: the IC50 was 3400 nM.

In the case of `CC(C)c1ccc(O)c(O)c(=O)c1`, the IC50 is 1000 nM.

As for `COc1ccc(-c2c(C#N)c(N)nc(SCC(=O)c3ccc(O)c(O)c3)c2C#N)cc1`, the IC50 was 700 nM.

In the case of `NCC[Se][Se]CCN`, the IC50 is 2000 nM.

Regarding `O=C(O)C1Nc2c(Cl)cc(Cl)cc2C2C=CCC12` (centres undefined), the IC50 entry was “inactive”.

As to `O=C1c2ccccc2C(=O)c2c1cc(O)c(O)c2O`, the IC50 is 400 nM.

With `COC([CH2][Hg][n]1cnc2c1c(=O)n(C)c(=O)n2C)CN1C(=O)c2ccccc2S1(=O)=O` (centres undefined), the IC50 is 900 nM.

Consider `Cc1ccc(C)n1-c1ccc(Br)cc1C(=O)O`, for which the IC50 result was “inactive”.

Consider `Cc1ccc(C(=O)NC(=S)Nc2ccc(-c3nc4ccccc4s3)cc2)cc1[N+](=O)[O-]`, for which the IC50 result was “inactive”.

On to `O=c1c(O)cccc2cc(O)c(O)c(O)c12`, for which the IC50 was 1300 nM.

Consider `CC(C)=CCC[C@]1(C)[C@@H](CC=C(C)C)C[C@@]2(CC=C(C)C)C(=O)/C(=C(\O)c3ccc(O)c(O)c3)C(=O)[C@]1(CC=C(C)C)C2=O`, for which the IC50 is 4800 nM.

On to `CC1=C(CCC(=O)O)c2cc3nc(cc4[nH]c(cc5[nH]c(cc1n2)c(C)c5C(C)O)c(C)c4C(C)O)C(C)=C3CCC(=O)O` (centres undefined), for which the IC50 was 1700 nM.

`Cc1ccc(S(=O)(=O)N=C2C=CC(=O)C=C2)c(C)c1`: the IC50 is 4300 nM.

Turning to `CCOc1ccc(NC(=O)c2c(NC(=O)c3ccco3)sc3c2CCCCC3)cc1`, the IC50 was 6000 nM.

`O=c1c(O)c(-c2cc(O)c(O)c(O)c2)oc2cc(O)cc(O)c12`: the IC50 was 3000 nM.

In the case of `CCOc1cccc(N2C(=O)/C(=C/c3cn(CC(=O)OC)c4ccccc34)C(=O)NC2=S)c1`, the IC50 is 2800 nM.

In the case of `O=C(O)c1c(Br)c(Br)c(Br)c(Br)c1C1c2ccc(O)cc2Oc2cc(O)ccc21`, the IC50 is 8000 nM.

Consider `c1ccc(C(c2cccc3c2ccc2ccccc23)C(c2ccccc2)c2cccc3c2ccc2ccccc23)cc1` (centres undefined), for which the IC50 entry is “inactive”.

Take `Cc1cc(O)c2c(c1O)C(=O)c1cccc(O)c1C2=O`: the IC50 was > 100000 nM (inactive).

Take `CCCCCCCCCCCCCCCCCCOCC(O)CO` (centres undefined): the IC50 was > 100000 nM (inactive).

With `O=C(Nc1sc2c(c1C(=O)Nc1cccc3ccccc13)CCCCC2)c1ccccc1F`, the IC50 result was “inactive”.

Turning to `CC(=O)C1=C(O)[C@@]2(O)C(=O)c3c(c(C)c4ccc(C)c(O)c4c3O)C[C@H]2[C@@H](N)C1=O`, the IC50 was 4400 nM.

On to `Cc1ccc(C2COc3cc(O)c(O)cc3C2)cc1` (centres undefined), for which the IC50 is 600 nM.

For `CCOc1ccc(C(=O)Nc2ccc3c(c2)C(=O)c2ccccc2C3=O)cc1`, the IC50 is 4300 nM.

On to `O=C1CC(=O)c2ccc3c4c(ccc1c24)C(=O)CC3=O`, for which the half-inhibitory concentration (IC50) is 3800 nM.

As for `CCC(=O)Nc1sc2c(c1C(=O)Nc1ccc(OC)cc1)CCCCC2`, the IC50 entry is “inactive”.

Take `O=C1NC(=S)S/C1=C/c1cccc(OCc2ccc(Cl)c(Cl)c2)c1`: the IC50 is 7300 nM.

Turning to `Cc1ccccc1-n1c(O)c(C=C2C=CC=N2)c(=O)[nH]c1=S`, the IC50 result is “inactive”.

Consider `CCCCCCCCCCCCCCCC(=O)OCC1OC(n2ccc(N)nc2=O)C(O)C1O` (centres undefined), for which the IC50 result was “inactive”.

Take `O=[N+]([O-])c1ccc2c(N=Nc3ccc4ccccc4c3O)c(O)cc(S(=O)(=O)O)c2c1`: the IC50 was 2200 nM.

For `O=C1NC(=S)N(c2ccc(Cl)cc2)C(=O)/C1=C/c1ccc(Br)o1`, the IC50 was 1700 nM.

Regarding `C=CC(C)(C)C12CC3C(=O)N/C(=C\c4cnc[nH]4)C(=O)N3C1Nc1ccccc12` (centres undefined), the IC50 was > 100000 nM (inactive).

With `O=C1NC(=S)N(c2cccc(Cl)c2)C(=O)/C1=C\C=C\c1ccco1`, the IC50 is 7000 nM.

As for `Cc1ccc(S(=O)(=O)/N=C2\C=C(Sc3ncn[nH]3)C(=O)c3ccccc32)cc1`, the IC50 was 2000 nM.

In the case of `CN(C)CS/C(N)=N/C(O)C(Cl)(Cl)Cl` (centres undefined), the IC50 is 6000 nM.

For the molecule `C[N+](C)=c1ccc2nc3c(cc(Nc4ccccc4)c4ccccc43)oc-2c1`, the IC50 result was “inactive”.

In the case of `C=C(CCC(C(=O)O)C1CCC2(C)C3=C(CCC12C)C1(C)CCC(O)C(C)(C)C1CC3)C(C)C` (centres undefined), the IC50 result was “inactive”.

Regarding `C[C@H]1[C@H](O)c2c(c3c(c4c(-c5ccccc5)cc(=O)oc24)OC(C)(C)C=C3)O[C@@H]1C`, the IC50 result was “inactive”.

For the molecule `COc1ccc(N2C(=O)/C(=C\c3cn(CC(=O)Nc4ccccc4)c4ccccc34)C(=O)NC2=S)cc1`, the IC50 is 2800 nM.

Regarding `CCN1C(=O)/C(=C/c2ccoc2)C(=O)NC1=S`, the IC50 result was “inactive”.

Regarding `Oc1ccc2ccccc2c1C=NCc1c(O)ccc2ccccc12`, the IC50 result is “inactive”.

Turning to `Cc1nn(CC(=O)Nc2sc(C)c(C)c2C(N)=O)c(C)c1[N+](=O)[O-]`, the concentration for half-maximal inhibition (IC50) is 4300 nM.

`Nc1ccc(S(=O)(=O)O)c2cccc(O)c12`: the IC50 result is “inactive”.

On to `O=C1NC(=S)N(c2ccc(Cl)cc2)C(=O)/C1=C/c1ccco1`, for which the IC50 entry is “inactive”.

For the molecule `O=C1/C(=C\c2ccc(O)c(O)c2)SC(=S)N1c1cccc(Cl)c1`, the IC50 is 6600 nM.

For `COc1ccccc1N=C(NOCc1ccc(Cl)cc1Cl)c1nonc1N`, the IC50 entry was “inactive”.

Regarding `O=C(Cc1ccccc1Cl)c1ccc(O)c(O)c1O`, the IC50 is 2000 nM.
